Measurements: PubChem BioAssay (NCI)
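Five concentrations, 48 hours, 96-well plates. TGI is the concentration that stops growth completely.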

Assays:
Experiment in all cases: NCI-60 cell line screen, 48 h
SNB-75 CNS = tested on: SNB-75 CNS
HT29 colon = tested on: HT29 colon
LOX IMVI melanoma = tested on: LOX IMVI melanoma
HCT-15 colon = tested on: HCT-15 colon
HCT-116 colon = tested on: HCT-116 colon
A498 renal = tested on: A498 renal
SNB-19 CNS = tested on: SNB-19 CNS
DMS 273 small cell lung = tested on: DMS 273 small cell lung
OVCAR-8 ovarian = tested on: OVCAR-8 ovarian
CCRF-CEM leukemia = tested on: CCRF-CEM leukemia
OVCAR-4 ovarian = tested on: OVCAR-4 ovarian
SN12C renal = tested on: SN12C renal
SK-MEL-2 melanoma = tested on: SK-MEL-2 melanoma
HCC-2998 colon = tested on: HCC-2998 colon
OVCAR-3 ovarian = tested on: OVCAR-3 ovarian
UACC-62 melanoma = tested on: UACC-62 melanoma
A549 NSCLC = tested on: A549 NSCLC
KM20L2 colon = tested on: KM20L2 colon
COLO 205 colon = tested on: COLO 205 colon
UACC-257 melanoma = tested on: UACC-257 melanoma
U251 CNS = tested on: U251 CNS
NCI-H226 lung = tested on: NCI-H226 lung
IGROV1 ovarian = tested on: IGROV1 ovarian
EKVX NSCLC = tested on: EKVX NSCLC
RXF 393 renal = tested on: RXF 393 renal
NCI-H460 lung = tested on: NCI-H460 lung
HOP-62 NSCLC = tested on: HOP-62 NSCLC
SK-MEL-28 melanoma = tested on: SK-MEL-28 melanoma
SW-620 colon = tested on: SW-620 colon
MALME-3M melanoma = tested on: MALME-3M melanoma
K-562 leukemia = tested on: K-562 leukemia
SR leukemia = tested on: SR leukemia
DMS 114 small cell lung = tested on: DMS 114 small cell lung
NCI-H23 lung = tested on: NCI-H23 lung
TK-10 renal = tested on: TK-10 renal
ACHN renal = tested on: ACHN renal
SF-539 CNS = tested on: SF-539 CNS
RPMI-8226 leukemia = tested on: RPMI-8226 leukemia
M19-MEL melanoma = tested on: M19-MEL melanoma
UO-31 renal = tested on: UO-31 renal
MOLT-4 leukemia = tested on: MOLT-4 leukemia
DLD-1 colon = tested on: DLD-1 colon
SK-MEL-5 melanoma = tested on: SK-MEL-5 melanoma
786-0 renal = tested on: 786-0 renal
LXFL 529 NSCLC = tested on: LXFL 529 NSCLC
SF-295 CNS = tested on: SF-295 CNS
SF-268 CNS = tested on: SF-268 CNS
M14 melanoma = tested on: M14 melanoma
HL-60(TB) leukemia = tested on: HL-60(TB) leukemia
NCI-H522 lung = tested on: NCI-H522 lung
SK-OV-3 ovarian = tested on: SK-OV-3 ovarian
KM12 colon = tested on: KM12 colon
NCI/ADR-RES ovarian = tested on: NCI/ADR-RES ovarian
MCF7 breast = tested on: MCF7 breast
CAKI-1 renal = tested on: CAKI-1 renal
HOP-92 NSCLC = tested on: HOP-92 NSCLC
OVCAR-5 ovarian = tested on: OVCAR-5 ovarian
MDA-N = tested on: MDA-N
T-47D breast = tested on: T-47D breast
MDA-MB-435 = tested on: MDA-MB-435
PC-3 prostate = tested on: PC-3 prostate
BT-549 breast = tested on: BT-549 breast
MDA-MB-231 breast = tested on: MDA-MB-231 breast
DU-145 prostate = tested on: DU-145 prostate
HS 578T breast = tested on: HS 578T breast

CC(C)C1CNC2N1C(=O)C2(C)OCc1ccccc1 (stereo not drawn)
TGI (SNB-75 CNS): > 100 µM
TGI (HT29 colon): > 100 µM
TGI (LOX IMVI melanoma): > 100 µM
TGI (HCT-15 colon): > 100 µM
TGI (HCT-116 colon): > 100 µM
TGI (A498 renal): > 100 µM
TGI (SNB-19 CNS): > 100 µM
TGI (DMS 273 small cell lung): > 100 µM
TGI (OVCAR-8 ovarian): > 100 µM
TGI (CCRF-CEM leukemia): > 100 µM
TGI (OVCAR-4 ovarian): > 100 µM
TGI (SN12C renal): > 100 µM
TGI (SK-MEL-2 melanoma): > 100 µM
TGI (HCC-2998 colon): > 100 µM
TGI (OVCAR-3 ovarian): > 100 µM
TGI (UACC-62 melanoma): > 100 µM
TGI (A549 NSCLC): > 100 µM
TGI (KM20L2 colon): > 100 µM
TGI (COLO 205 colon): > 100 µM
TGI (UACC-257 melanoma): > 100 µM
TGI (U251 CNS): > 100 µM
TGI (NCI-H226 lung): > 100 µM
TGI (IGROV1 ovarian): > 100 µM
TGI (EKVX NSCLC): > 100 µM
TGI (RXF 393 renal): > 100 µM
TGI (NCI-H460 lung): > 100 µM
TGI (HOP-62 NSCLC): > 100 µM
TGI (SK-MEL-28 melanoma): > 100 µM
TGI (SW-620 colon): > 100 µM
TGI (MALME-3M melanoma): > 100 µM
TGI (K-562 leukemia): > 100 µM
TGI (SR leukemia): > 100 µM
TGI (DMS 114 small cell lung): > 100 µM
TGI (NCI-H23 lung): > 100 µM
TGI (TK-10 renal): > 100 µM
TGI (ACHN renal): > 100 µM
TGI (SF-539 CNS): > 100 µM
TGI (RPMI-8226 leukemia): > 100 µM
TGI (M19-MEL melanoma): > 100 µM
TGI (UO-31 renal): > 100 µM
TGI (MOLT-4 leukemia): > 100 µM
TGI (DLD-1 colon): > 100 µM
TGI (SK-MEL-5 melanoma): > 100 µM
TGI (786-0 renal): > 100 µM
TGI (LXFL 529 NSCLC): > 100 µM
TGI (SF-295 CNS): > 100 µM
TGI (SF-268 CNS): > 100 µM
TGI (M14 melanoma): > 100 µM
TGI (HL-60(TB) leukemia): > 100 µM

COc1ccc(-c2cc(-c3ccccc3)nc(/N=C\c3ccccc3)n2)c(O)c1
TGI (NCI-H522 lung): > 100 µM
TGI (SNB-75 CNS): > 100 µM
TGI (SK-OV-3 ovarian): > 100 µM
TGI (HT29 colon): > 100 µM
TGI (LOX IMVI melanoma): > 100 µM
TGI (HCT-15 colon): > 100 µM
TGI (HCT-116 colon): > 100 µM
TGI (A498 renal): > 100 µM
TGI (SNB-19 CNS): > 100 µM
TGI (OVCAR-8 ovarian): > 100 µM
TGI (CCRF-CEM leukemia): > 100 µM
TGI (OVCAR-4 ovarian): > 100 µM
TGI (KM12 colon): > 100 µM
TGI (SN12C renal): > 100 µM
TGI (SK-MEL-2 melanoma): > 100 µM
TGI (HCC-2998 colon): > 100 µM
TGI (OVCAR-3 ovarian): > 100 µM
TGI (UACC-62 melanoma): > 100 µM
TGI (A549 NSCLC): > 100 µM
TGI (NCI/ADR-RES ovarian): > 100 µM
TGI (MCF7 breast): > 100 µM
TGI (CAKI-1 renal): 8.39 µM
TGI (COLO 205 colon): > 100 µM
TGI (UACC-257 melanoma): > 100 µM
TGI (U251 CNS): > 100 µM
TGI (NCI-H226 lung): > 100 µM
TGI (IGROV1 ovarian): > 100 µM
TGI (EKVX NSCLC): > 100 µM
TGI (RXF 393 renal): > 100 µM
TGI (HOP-92 NSCLC): > 100 µM
TGI (NCI-H460 lung): > 100 µM
TGI (HOP-62 NSCLC): > 100 µM
TGI (SK-MEL-28 melanoma): > 100 µM
TGI (SW-620 colon): > 100 µM
TGI (MALME-3M melanoma): > 100 µM
TGI (K-562 leukemia): > 100 µM
TGI (SR leukemia): > 24.1 µM
TGI (NCI-H23 lung): > 100 µM
TGI (OVCAR-5 ovarian): > 100 µM
TGI (TK-10 renal): > 100 µM
TGI (ACHN renal): > 100 µM
TGI (SF-539 CNS): > 100 µM
TGI (RPMI-8226 leukemia): 5.71 µM
TGI (MDA-N): > 100 µM
TGI (UO-31 renal): > 100 µM
TGI (MOLT-4 leukemia): > 100 µM
TGI (T-47D breast): > 100 µM
TGI (SK-MEL-5 melanoma): > 100 µM
TGI (MDA-MB-435): > 100 µM
TGI (PC-3 prostate): > 100 µM
TGI (786-0 renal): > 100 µM
TGI (BT-549 breast): > 100 µM
TGI (MDA-MB-231 breast): > 100 µM
TGI (SF-295 CNS): > 100 µM
TGI (SF-268 CNS): > 100 µM
TGI (DU-145 prostate): > 100 µM
TGI (HS 578T breast): > 100 µM
TGI (M14 melanoma): > 100 µM
TGI (HL-60(TB) leukemia): > 35.4 µM
